According to PMC2654417 (Combinatorial chemistry & high throughput screening, 2008):
Where two headings read alike, the source gives them in different places.

Biological target: T1, glucocorticoid receptor (GR) (Homo sapiens, UniProt P04150)
T1 sequence (P04150 1-777): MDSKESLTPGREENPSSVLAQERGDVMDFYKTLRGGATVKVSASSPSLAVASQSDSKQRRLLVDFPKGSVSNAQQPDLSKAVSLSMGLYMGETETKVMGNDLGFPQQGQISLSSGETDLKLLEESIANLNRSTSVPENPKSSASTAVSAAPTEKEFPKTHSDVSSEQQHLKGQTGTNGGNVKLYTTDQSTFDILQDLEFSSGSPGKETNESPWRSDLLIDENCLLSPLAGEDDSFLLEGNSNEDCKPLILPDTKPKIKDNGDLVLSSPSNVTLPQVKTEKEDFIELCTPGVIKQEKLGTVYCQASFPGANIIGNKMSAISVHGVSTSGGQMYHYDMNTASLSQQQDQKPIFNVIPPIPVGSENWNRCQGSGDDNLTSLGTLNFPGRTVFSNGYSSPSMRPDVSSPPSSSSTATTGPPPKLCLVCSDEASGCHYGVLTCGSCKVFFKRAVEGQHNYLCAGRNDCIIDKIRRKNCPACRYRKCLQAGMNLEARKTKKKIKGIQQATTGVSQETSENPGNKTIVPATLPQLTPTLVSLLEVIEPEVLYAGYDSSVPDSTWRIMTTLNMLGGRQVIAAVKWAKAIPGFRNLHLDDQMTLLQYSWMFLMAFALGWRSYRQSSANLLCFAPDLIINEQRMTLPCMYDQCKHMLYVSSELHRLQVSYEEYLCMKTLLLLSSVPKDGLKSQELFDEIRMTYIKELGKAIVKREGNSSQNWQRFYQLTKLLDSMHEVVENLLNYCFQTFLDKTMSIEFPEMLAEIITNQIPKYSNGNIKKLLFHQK
Test: GR-EFC nuclear translocation assay
Assay type: cell-based
Conditions: for EC50: read-out: qEC50; for qHTS Hill Slope: Hill slope of the qHTS curve fit; for log qEC50: log10 of qEC50 in M, printed as negative values; for qHTS Max Activity: maximal activity of the qHTS curve, inactive threshold […] (3σ)

[1] = qHTS curve fit, class 4 values are fit defaults
[2] = class 4 values are fit defaults

COc1cc2c(cc1OC)-c1c(OC)c(OC)c(CO)c3c1[C@H](C2)N(C)CC3 [NCGC00017307-01]
qHTS Curve Class: 4 (inactive, where activity was below 28.6% (3σ for the present assay)) | EC50: > 9 µM

CC(C)(O)/C=C\C(=O)[C@](C)(O)[C@H]1[C@H](O)C[C@]2(C)[C@@H]3CC=C4[C@@H](C=C(O)C(=O)C4(C)C)[C@]3(C)C(=O)C[C@@]12C [NCGC00014911-01]
qHTS Curve Class: 4 (inactive, where activity was below 28.6% (3σ for the present assay)) | EC50: > 9 µM

C[C@@]12CC[C@@H]3c4ccc(O)cc4C[C@H](CCCCCCCCC[S+]([O-])CCCC(F)(F)C(F)(F)F)[C@H]3[C@@H]1CC[C@@H]2O (some centres unmarked) [NCGC00024964-01]
EC50 [1]: > 9 µM

CC1(C)O[C@@H]2C[C@H]3[C@@H]4C[C@H](F)C5=CC(=O)CC[C@]5(C)[C@H]4[C@@H](O)C[C@]3(C)[C@]2(C(=O)CO)O1 [NCGC00016586-01]
qHTS Hill Slope: 0.69 | log qEC50 [2]: −7.725 | qHTS Max Activity: 104.7 | EC50 [1]: 0.0188 µM

C[C@]12C[C@H]3S[C@H]3C[C@@H]1CC[C@@H]1[C@@H]2CC[C@]2(C)[C@@H](O)CC[C@@H]12 [NCGC00016609-01]
qHTS Curve Class: 4 (inactive, where activity was below 28.6% (3σ for the present assay)) | EC50: > 9 µM

C[C@@]12CC[C@H]3[C@@H](CC=C4C[C@H](OS(=O)(=O)O)CC[C@]43C)[C@H]1CCC2=O [NCGC00016143-01]
EC50 [1]: > 9 µM

CC(=O)[C@@]1(O)CC[C@@H]2[C@@H]3CCC4=CC(=O)CC[C@@]4(C)[C@H]3CC[C@]21C [NCGC00015510-01]
qHTS Hill Slope: 0.35 | qHTS Max Activity: 100.0

C[C@]12CC[C@H](O)CC1=CC[C@@H]1[C@H]2CC[C@]2(C)C(=O)CC[C@H]12 [NCGC00015341-01]
EC50 [1]: > 9 µM

CCOC(=O)O[C@]1(C(=O)COC(=O)CC)CC[C@H]2[C@@H]3CCC4=CC(=O)C=C[C@]4(C)[C@H]3[C@@H](O)C[C@@]21C [NCGC00016926-01]
qHTS Hill Slope: 0.96 | log qEC50 [2]: −8.025 | qHTS Max Activity: 30.2 | EC50 [1]: 0.00944 µM

CC(=O)O[C@H]1C[C@@]2(C)[C@@H](C[C@@H](O)[C@H]3[C@@]4(C)CC[C@@H](O)[C@@H](C)[C@@H]4CC[C@@]32C)/C1=C(\CCC=C(C)C)C(=O)[O-].[Na+] [NCGC00017030-01]
qHTS Curve Class: 4 (inactive, where activity was below 28.6% (3σ for the present assay)) | EC50: > 9 µM

CC[C@H](CC[C@H](C)[C@@H]1CC[C@@H]2[C@H]3CC=C4C[C@@H](O)CC[C@]4(C)[C@H]3CC[C@]21C)C(C)C [NCGC00016331-01]
EC50 [1]: > 9 µM

CC(=O)OCC(=O)[C@@]12OC(C)(C)O[C@@H]1C[C@H]1[C@@H]3C[C@H](F)C4=CC(=O)C=C[C@]4(C)[C@@]3(F)[C@@H](O)C[C@@]12C [NCGC00016436-01]
log qEC50 [2]: −7.893 | qHTS Max Activity: 47.0 | EC50 [1]: 0.0128 µM

C#C[C@]1(O)CC[C@@H]2[C@H]3CCc4cc(OC)ccc4[C@@H]3CC[C@@]21C [NCGC00016310-01]
EC50 [1]: > 9 µM

CCC(=O)O[C@H]1CC[C@H]2[C@@H]3CCC4=CC(=O)CC[C@]4(C)[C@H]3CC[C@]12C [NCGC00016254-01]
EC50 [1]: > 9 µM

C[C@@]12CC[C@H](O)C[C@@H]1CC[C@H]1[C@H]2CC[C@@]2(C)[C@@H](C3=CC(=O)OC3)CC[C@]12O [NCGC00016406-01]
EC50 [1]: > 9 µM

C[C@@]12CC(=O)[C@H]3[C@@H](CCC4=CC(=O)CC[C@]43C)[C@H]1CCC2=O [NCGC00016440-01]
EC50 [1]: > 9 µM

COc1ccc2c(c1)CC[C@H]1[C@@H]2CC[C@@]2(C)[C@@H](NCCCCCCN3C(=O)C=CC3=O)CC[C@@H]12 [NCGC00025091-01]
EC50 [1]: > 9 µM

CC(=O)OCC(=O)[C@@]1(OC(C)=O)[C@H](C)C[C@H]2[C@@H]3C[C@H](F)C4=CC(=O)C=C[C@@]4(C)[C@]3(F)[C@H](O)C[C@@]21C [NCGC00016822-01]
qHTS Hill Slope: 0.44 | log qEC50 [2]: −7.111 | qHTS Max Activity: 80.7 | EC50 [1]: 0.0775 µM

C[C@@]12C[C@@H](O)[C@H]3[C@@H](CCC4=CC(=O)CC[C@]43C)[C@H]1CC[C@H]2C(=O)CO [NCGC00015222-01]
qHTS Hill Slope: 0.77 | log qEC50 [2]: −6.747 | qHTS Max Activity: 64.0 | EC50 [1]: 0.179 µM

C=C(C)[C@H]1CC[C@]2(C(=O)O)CC[C@]3(C)[C@@H](CC[C@H]4[C@@]5(C)CC[C@@H](O)C(C)(C)[C@@H]5CC[C@@]43C)[C@H]12 [NCGC00016449-01]
qHTS Curve Class: 4 (inactive, where activity was below 28.6% (3σ for the present assay)) | EC50: > 9 µM

C#C[C@@]1(O)CC[C@@H]2[C@@H]3CCC4=CC(=O)CC[C@@H]4[C@H]3CC[C@]21C [NCGC00016303-01]
qHTS Curve Class: 4 (inactive, where activity was below 28.6% (3σ for the present assay))

CC(=O)O[C@@H]1[C@H]([N+]2(C)CCCCC2)C[C@@H]2[C@@H]3CC[C@@H]4C[C@@H](OC(C)=O)[C@H]([N+]5(C)CCCCC5)C[C@@]4(C)[C@H]3CC[C@]21C [NCGC00015804-01]
EC50 [1]: > 9 µM

C[C@@]12CCC(=O)C=C1CC[C@@H]1[C@@H]2[C@H](O)C[C@]2(C)[C@@H]1CC[C@]2(O)C(=O)CO [NCGC00016215-01]
qHTS Hill Slope: 0.70 | qHTS Max Activity: 60.7

C[C@@]12CC[C@H]3[C@@H](CC[C@]4(O)C[C@H](O)CC[C@@]34C=O)[C@]1(O)CC[C@@H]2C1=CC(=O)OC1 [NCGC00016295-01]
EC50 [1]: > 9 µM

CC(=O)O[C@@H]1CC[C@]2(C)[C@H]3CC[C@]4(C)[C@H](C[C@H]5CCCC[C@@]54C(C)=O)[C@@H]3CC(=O)[C@@]2(O)C1 [NCGC00017282-01]
EC50 [1]: > 9 µM

C[C@@]12C=CC(=O)C=C1CC[C@@H]1C2=CC[C@]2(C)[C@@H]1CC[C@H]2C(=O)CN1CCN(c2cc(N3CCCC3)nc(N3CCCC3)n2)CC1 [NCGC00016076-01]
qHTS Curve Class: 4 (inactive, where activity was below 28.6% (3σ for the present assay)) | EC50: > 9 µM

C#C[C@@]1(OC(C)=O)CC[C@@H]2[C@@H]3CCC4=C[C@@H](OC(C)=O)CC[C@H]4[C@H]3CC[C@]21C [NCGC00016417-01]
qHTS Curve Class: 4 (inactive, where activity was below 28.6% (3σ for the present assay)) | EC50: > 9 µM

C[C@H]1CC[C@@]2(NC1)O[C@@H]1C[C@H]3[C@@H]4CC=C5C[C@@H](O)CC[C@]5(C)[C@@H]4CC[C@]3(C)[C@@H]1[C@@H]2C [NCGC00016381-01]
EC50 [1]: > 9 µM

C[C@]12CC[C@H]3[C@@H](CCC4=CC(=O)CC[C@@]43C)[C@@H]1CC[C@@H]2C(=O)CO [NCGC00016292-01]
EC50 [1]: > 9 µM

C[C@H]1C[C@@H]2[C@H]([C@@H](O)C[C@@]3(C)[C@H]2CC[C@]3(O)C(=O)CO)[C@@]2(C)C=CC(=O)C=C12 [NCGC00016330-01]
qHTS Hill Slope: 0.98 | qHTS Max Activity: 63.5

C[C@@]12CC[C@H]3[C@@H](CCC4=C(O)C(=O)CC[C@]43C)[C@H]1CCC2=O [NCGC00015070-01]
EC50 [1]: > 9 µM

CCC(=O)[C@@]1(C)[C@H](C)C[C@H]2[C@@H]3CCC4=CC(=O)C=C[C@]4(C)[C@H]3[C@@H](O)C[C@@]21C [NCGC00016856-01]
qHTS Hill Slope: 0.52 | log qEC50 [2]: −8.507 | qHTS Max Activity: 77.5 | EC50 [1]: 0.00311 µM

C[C@H]1[C@H](C)CC[C@@]2(C(=O)O)CC[C@]3(C)C(=CC[C@H]4[C@@]5(C)C[C@@H](O)[C@H](O)[C@@](C)(CO)[C@@H]5CC[C@@]43C)[C@@H]12 [NCGC00017359-01]
qHTS Curve Class: 4 (inactive, where activity was below 28.6% (3σ for the present assay)) | EC50: > 9 µM

CC(=O)O[C@H]1CC[C@@]2(C)[C@@H](CC[C@@]3(C)[C@H]2C(=O)C=C2[C@H]4C[C@](C)(C(=O)OCCN5CCCCC5)CC[C@]4(C)CC[C@@]23C)C1(C)C [NCGC00017165-01]
qHTS Curve Class: 4 (inactive, where activity was below 28.6% (3σ for the present assay)) | EC50: > 9 µM

C[C@@]12CC[C@@H]3c4ccc(O)cc4CC[C@H]3[C@H]1C[C@@H](O)[C@H]2O [NCGC00016217-01]
EC50 [1]: > 9 µM

CC(=O)O[C@H]1C[C@H]2CC[C@@H]3[C@@H](CC[C@]4(C)[C@H](OC(C)=O)[C@H]([N+]5(C)CCCCC5)C[C@@H]34)[C@]2(C)C[C@H]1[N+]1(C)CCCCC1 [NCGC00016716-01]
EC50 [1]: > 9 µM
